Experiments:
HCT116-MTAPdel = assay: 2D antiproliferative assay (CTG cell viability), MTAP-deficient cells; type: cell-based; details: for IC50: Homo sapiens, HCT-116, HCT116 MTAP-deficient cells, 7-10 days, CTG, read-out: HCT116-MTAPdel/IC50/nM; for HCT116WT IMTAPdel selectivity: ratio IC50 wild type / MTAPdel, antiproliferation
Procedure: (§1) HCT116 wild-type and MTAP-deficient cells were cultured in McCoy's 5A medium containing 10% FBS and 1% penicillin-streptomycin, and cultured in a 37°C, 5% CO2 constant temperature incubator. 40 µL of cell suspension was introduced into each well of a 384-well microplate. 40 nL of different concentrations of test compounds were added to each well using an Echo, before culturing in a 37°C, 5% CO2 constant temperature incubator for 7-10 days. 40 µL of CTG solution (Promega, Cat No. G7573) was added to each well and incubated in a 37°C, 5% CO2 constant temperature incubator for 30 minutes in the dark.

HCT116-MTAPwt = assay: 2D antiproliferative assay (CTG cell viability), wild-type cells; type: cell-based; details: Homo sapiens, HCT-116, 7-10 days
Procedure: as §1

in vitro [1] = details: human, microsomes
Procedure: (§7) The compounds to be tested were co-incubated with liver microsomes of different species with or without the addition of NADPH. The final concentration of the test compounds in the test system was 1 µM, the final concentration of NADPH was 1 mM, and the final concentration of liver microsomes was 0.5 mg/mL.

SDMA/HCT116-MTAPdel = assay: In-cell arginine symmetric dimethylation inhibition (In-cell western, ICW), MTAP-deficient cells; type: cell-based; details: for IC50: Homo sapiens, HCT-116, HCT116 MTAP-deficient cells, 96 hours; for Selectivity wt/MTAPdel: ratio SDMA IC50 wt / MTAPdel
Procedure: (§2) 60 nL of different concentrations of compounds were added to each well using an Echo, and incubated at 37°C, 5% CO2 for 96 hours.
(§3) Next, 50 µL of 4% paraformaldehyde solution was added to each well and incubated at room temperature for 20 minutes to fix the cells. The solution in the wells was removed, and each well was rinsed four times with PBS solution containing 0.1% Tween 20 (PBST). To each well was then added 30 µL of ice-cold methanol. After standing at -20°C for 10 minutes, the methanol was removed and the wells washed four times with PBST. 30 µL of Odyssey blocking solution containing 0.5% Tween 20 was added to each well and shaken for 2 hours at room temperature. The blocking solution was removed and 30 µL of primary antibody (Symmetric Di-Methyl Arginine Motif [sdma-RG] MultiMab™ Rabbit mAb mix) diluted at 1:500 in Odyssey blocking solution containing 0.5% Tween 20 was added to each well. The plates were incubated overnight at 4°C, before removing the primary antibody and rinsing each well four times with PBST, 5 minutes per rinse. Secondary antibody (goat anti-rabbit IRDye 800CW, 1:800) and nuclear stain (DRAQ5, 1:10000) diluted in Odyssey blocking solution containing 0.5% Tween 20 were then added to each well before incubating at room temperature for 2 hours in the dark. The secondary antibody was removed, and the wells rinsed four times with PBST.
(§4) The sdme-RG and DRAQ5 signals were scanned at 800 nm and 700 nm respectively on a Li-Cor Odyssey instrument and the signal values recorded. The sdme-RG/DRAQ5 ratio was used to calculate the percentage inhibition of arginine symmetric dimethylation (SDMA), and the IC50 value calculated using GraphPad Prism software.

SDMA/HCT116-MTAPwt = assay: In-cell arginine symmetric dimethylation inhibition (In-cell western, ICW), wild-type cells; type: cell-based; details: Homo sapiens, HCT-116, 96 hours
Procedure: as §2, §3, §4

[2] = Liver microsomal stability assay, mouse; type: in vitro ADME; details: mouse liver microsomes 0.5 mg/mL, compound 1 µM, NADPH 1 mM, 60 minute
Procedure: as §7

in vitro [3] = details: dog, MDCK-MDR1, pH 7.4
Procedure: (§5) The membrane permeability of the molecules of the present invention was evaluated to predict their permeability to the brain.
(§6) The specific procedure was: 1. MDCK-MDR1 cells were pre-cultured at a density of 1.56*10^6 cells/mL in a 96-well plate at 37°C for 7 days. 2. The MDCKII-MDR1 plate was taken out of the incubator, rinsed twice with pre-warmed HBSS (10 mM HEPES, pH 7.4), and then incubated at 37°C for 30 minutes. 3. The stock solution of the compound to be tested was diluted with DMSO to obtain a 0.2 mM solution, and then diluted with HBSS (10 mM HEPES, pH 7.4) to obtain a 1 µM working solution. A blank control group was also diluted with DMSO to obtain a 0.2 mM solution, and then diluted with HBSS (10 mM HEPES, pH 7.4) to obtain a 1 µM working solution. The final concentration of DMSO in the culture system was 0.5%. 4. The transport rate of the drug in the apical to basolateral direction was determined: 125 µL of the 1 µM test compound solution was added to a Transwell insert (top compartment), before immediately transferring a 50 µL sample (D0 sample) from the top comparment to a new 96-well plate. The receiving plate wells (basolateral compartment) were filled with 235 µL HBSS (10 mM HEPES, pH 7.4) and incubated at 37°C for 2 hours. 5. Upon completion of the incubation, 50 µL samples were transferred from the donor and acceptor sides to the wells of a new 96-well plate, before adding 4 volumes of cold acetonitrile containing an appropriate internal standard (IS). Prior to LC-MS/MS analysis, 100 µL of the supernatant was taken and mixed with an appropriate volume of ultrapure water. Papp = (VA×[drug]acceptor)/(Area×Time×[drug]initial,donor) [formula] where VA is the volume of the receptor pores (unit:mL), Area is the surface area of the membrane (0.143 cm^2 for a Transwell-96 well permeable support), and time is the total transport time in seconds. Efflux Ratio = Papp(B−A) /Papp(A−B) [formula]

MDR1 (P-gp) = assay: in vitro; details: dog, MDCK-MDR1, pH 7.4
Procedure: as §5, §6

[4] = Mouse pharmacokinetics testing; type: in vivo, CD1 female mice; details: female, CD1, mouse, in vivo
Procedure: CD1 female mice were used as test animals and administered the compounds orally/intravenously (oral dosage was 10 mg/kg and intravenous dosage was 2 mg/kg). Test protocol: Each oral and intravenous group consisted of three mice. […] Plasma drug concentrations after oral and intravenous administration were determined by LC/MS/MS, and the collected data analyzed using AB Sciex QTRAP 6500 software.

[5] = test system: NCI-H838 (MTAPdel) non-small cell lung adenocarcinoma tumor cells; assay: In vivo efficacy, NCI-H838 subcutaneous xenograft; design: species or system BALB/c nude mice; details: BID, oral; for TGI: 23 consecutive days; for Tumor volume (mm^3)-D1: D1 (baseline at start of dosing)
Procedure: NCI-H838 (MTAPdel) non-small cell lung adenocarcinoma tumor cells were cultured and inoculated into 6-8 week old female BALB/c nude mice (weighing about 20 g), with all mice inoculated subcutaneously. The mice were cultured in an SPF-grade environment, and all mice had free access to commercially certified standard diets. Test compounds were orally administered daily once the average tumor volume of the mice grew to about 140 mm^3. The control group received blank solvent (saline containing 0.1% Tween 80 and 0.5% methyl cellulose), while the test group received a drug dose of 75 mg/kg or 100 mg/kg, twice a day. Tumor volume was measured in two dimensions with calipers three times a week, and the animals were weighed every day. […] Volume calculation formula: V=1/2a*b^2, where a denotes the long diameter of the tumor, and b the short diameter of the tumor.

[6] = Liver microsomal stability assay, human; details: liver microsomes
Procedure: as §7

[7] = test system: HUP-T4 (MTAPdel) human pancreatic cancer tumor cells; assay: In vivo efficacy, HUP-T4 subcutaneous xenograft; design: species or system BALB/c nude mice; details: BID, oral; for TGI: 28 consecutive days; for Tumor volume (mm^3)-D1: D1 (baseline at start of dosing)
Procedure: HUP-T4 (MTAPdel) human pancreatic cancer tumor cells (MEM medium with 10% fetal bovine serum) were cultured and inoculated into 6-8 week old female BALB/c nude mice (weighing about 25 g), with all mice subcutaneously inoculated. The mice were cultured in an SPF-grade environment, and all mice had free access to commercially certified standard diets. Test compounds were orally administered daily once the average tumor volume of the mice grew to about 176 mm^3. The control group received blank solvent (0.1% TW80+0.5% methylcellulose+99.4% saline), while the test group received a drug dose of 75 mg/kg or 50 mg/kg, twice a day. Tumor volume was measured in two dimensions with calipers three times a week, and the animals were weighed every day. […] Voume calculation formula: V=1/2a*b^2, where a denotes the long diameter of the tumor, and b the short diameter of the tumor.

hERG channels = hERG channels (Homo sapiens, UniProt Q12809); assay: cell-based
Chain of hERG channels (Q12809 whole entry): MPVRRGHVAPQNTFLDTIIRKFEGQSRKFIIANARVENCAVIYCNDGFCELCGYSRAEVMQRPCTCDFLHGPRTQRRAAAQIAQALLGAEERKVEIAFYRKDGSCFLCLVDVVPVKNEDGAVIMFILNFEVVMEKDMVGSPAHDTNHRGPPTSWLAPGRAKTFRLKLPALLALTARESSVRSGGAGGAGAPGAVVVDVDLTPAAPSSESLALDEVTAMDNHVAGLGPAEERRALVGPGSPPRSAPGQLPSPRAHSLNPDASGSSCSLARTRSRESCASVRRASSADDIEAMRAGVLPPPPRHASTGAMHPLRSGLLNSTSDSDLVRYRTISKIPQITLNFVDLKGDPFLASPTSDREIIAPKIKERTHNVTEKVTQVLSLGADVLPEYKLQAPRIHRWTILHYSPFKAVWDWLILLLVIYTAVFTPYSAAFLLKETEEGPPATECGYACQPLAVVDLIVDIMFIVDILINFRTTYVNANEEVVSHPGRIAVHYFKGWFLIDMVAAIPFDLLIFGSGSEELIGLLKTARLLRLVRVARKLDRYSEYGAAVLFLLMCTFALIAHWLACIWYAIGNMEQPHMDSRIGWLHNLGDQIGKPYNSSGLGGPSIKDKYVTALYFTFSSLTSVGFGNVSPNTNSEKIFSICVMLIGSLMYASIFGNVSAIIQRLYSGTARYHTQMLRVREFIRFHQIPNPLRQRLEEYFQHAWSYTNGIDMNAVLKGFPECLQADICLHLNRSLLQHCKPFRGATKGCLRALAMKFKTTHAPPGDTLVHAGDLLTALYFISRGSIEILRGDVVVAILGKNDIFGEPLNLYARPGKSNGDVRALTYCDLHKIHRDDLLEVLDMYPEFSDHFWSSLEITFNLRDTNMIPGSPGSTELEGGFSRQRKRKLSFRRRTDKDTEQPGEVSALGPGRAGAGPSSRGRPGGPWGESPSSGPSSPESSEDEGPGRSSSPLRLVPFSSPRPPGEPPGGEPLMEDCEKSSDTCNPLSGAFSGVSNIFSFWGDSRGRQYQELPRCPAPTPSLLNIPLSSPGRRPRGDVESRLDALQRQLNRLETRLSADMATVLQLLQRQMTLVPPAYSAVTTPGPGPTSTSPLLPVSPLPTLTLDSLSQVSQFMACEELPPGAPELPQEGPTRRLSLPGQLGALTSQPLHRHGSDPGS
Procedure: The CHO hERG-Duo cell line stably expressing hERG channels was purchased from B'SYS GmbH and screened for monoclonal clones using the patch clamp system of Pharmaron Beijing Co., Ltd. The cells were cultured in a medium containing F12 (HAM) medium, 10% fetal bovine serum, 100 U/mL penicillin-streptomycin, 100 µg/mL hygromycin, and 100 µg/mL G418.
The membrane was depolarized to +30 mV for 4.8 seconds before returning the voltage to -50 mV for 5.2 seconds to remove inactivation and measure the deactivation tail current. The sampling interval was 15 seconds, and the peak tail current size was used to quantify the hERG current amplitude.
A blank vehicle was applied to the cells to establish a baseline. Test samples were introduced after stabilizing the hERG current for at least 5 minutes. In the presence of the test compound, the hERG current at different working concentrations was recorded for no less than 5 minutes until reaching a steady state, before capturing 5 sweeps. If a steady state was not reached within 10 minutes, the mean peak current of the last 5 sweeps was taken instead of the steady-state value. […] Peak current inhibition = (1−(Peak tail currentcompound −Peak tail currentpositive control)/(Peak tail currentBlank vehicle −Peak tail currentpositive control)) × 100 [formula]

Row | Structure (SMILES) | IC50 (HCT116-MTAPdel) [nM] | HCT116WT IMTAPdel selectivity (HCT116-MTAPdel) | IC50 (HCT116-MTAPwt) [nM] | IC50 (SDMA/HCT116-MTAPdel) [nM] | Selectivity wt/MTAPdel (SDMA/HCT116-MTAPdel) | IC50 (SDMA/HCT116-MTAPwt) [nM] | CLint scaled at 1 µM [2] [mL/min/kg] | Papp A→B (in vitro [3]) [×10⁻⁶ cm/s] | Papp B→A (in vitro [3]) [×10⁻⁶ cm/s] | efflux ratio (MDR1 (P-gp)) | F [4] [%] | AUC(0-t) ([4]; iv, 2 mg/kg) [ng·h/mL] | C0 ([4]; iv, 2 mg/kg) [ng/mL] | clearance ([4]; iv, 2 mg/kg) [mL/min/kg] | half-life ([4]; iv, 2 mg/kg) [h] | AUC(0-t) ([4]; po, 10 mg/kg) [ng·h/mL] | Cmax ([4]; po, 10 mg/kg) [ng/mL] | Tmax ([4]; po, 10 mg/kg) [h] | half-life ([4]; po, 10 mg/kg) [h] | CLint scaled at 1 µM [6] [mL/min/kg] | other results
1 | CN(C(=O)C(=O)Nc1cnc(N)c2c1cnn2C)C1COc2cc(SC(F)(F)F)ccc21 (racemic) [Compound P29] | 20 | 165 | 3300 |  |  |  |  |  |  |  |  |  |  |  |  |  |  |  |  |  | CLint scaled at 1 h, 1 µM (in vitro [1]): 25.9 mL/min/kg
2 | CN(C(=O)C(=O)Nc1cnc(N)c2c1cnn2C)[C@@H]1COc2cc(C(F)(F)F)ccc21 [Compound P2a] | 5 | 216 | 1080 | 0.5 | 3054 | 1530 | 55 | 14.8 | 22.1 | 1.5 | 69 | 402 | 345 | 82.4 | 1.2 | 1380 | 707 | 0.25 | 1.2 | 7.4 | TGI ([5]; 75 mg/kg): 92%; Tumor volume (mm^3)-D1 ([5]; 75 mg/kg): 140 mm^3; Tumor volume (mm^3)-D23 ([5]; 75 mg/kg): 350 mm^3; TGI ([5]; 100 mg/kg): 97%; Tumor volume (mm^3)-D1 ([5]; 100 mg/kg): 140 mm^3; Tumor volume (mm^3)-D23 ([5]; 100 mg/kg): 180 mm^3
3 | [2H]C([2H])([2H])N(C(=O)C(=O)Nc1cnc(N)c2c1cnn2C)[C@@H]1COc2cc(C(F)(F)F)ccc21 [Compound P22] | 6 | 160 | 961 | 0.2 | 1490 | 298 | 46.2 | 14.9 | 20.6 | 1.38 | 62 | 896 | 1140 | 35.5 | 2.6 | 2660 | 1180 | 0.25 | 2.2 | 7.8 | TGI ([7]; 50 mg/kg): 102%; Tumor volume (mm^3)-D1 ([7]; 50 mg/kg): 176 mm^3; Tumor volume (mm^3)-D28 ([7]; 50 mg/kg): 158 mm^3; TGI ([7]; 75 mg/kg): 104%; Tumor volume (mm^3)-D1 ([7]; 75 mg/kg): 176 mm^3; Tumor volume (mm^3)-D28 ([7]; 75 mg/kg): 146 mm^3
4 | CN(C(=O)C(=O)Nc1cnc(N)c2c1cnn2C)[C@@H]1COc2cc(SC(F)(F)F)ccc21 [Compound P29a] | 9 | 261 | 2350 | 0.4 | 670 | 268 |  | 7.6 | 13.3 | 1.75 |  |  |  |  |  |  |  |  |  | 49.7 | IC50 (hERG channels): 1500 nM
5 | [2H]C([2H])([2H])N(C(=O)C(=O)Nc1cnc(N)c2c1cnn2C)[C@@H]1COc2cc(SC(F)(F)F)ccc21 [Compound P32] | 9 | 194 | 1750 | 0.3 | 853 | 256 | 242 | 10.5 | 13.5 | 1.28 | 75 | 788 | 733 | 41.8 | 1.4 | 2580 | 798 | 0.25 | 1.7 | 32 | TGI ([7]; 50 mg/kg): 97%; Tumor volume (mm^3)-D1 ([7]; 50 mg/kg): 176 mm^3; Tumor volume (mm^3)-D28 ([7]; 50 mg/kg): 198 mm^3; TGI ([7]; 75 mg/kg): 104%; Tumor volume (mm^3)-D1 ([7]; 75 mg/kg): 176 mm^3; Tumor volume (mm^3)-D28 ([7]; 75 mg/kg): 140 mm^3; IC50 (hERG channels): 2900 nM

Source: patent EP4653435A1, “PRMT5-MTA INHIBITOR” (Suzhou Puhe Biopharma Co., Ltd., priority 2023, dated 2024)
